Experiments:
[1] = Superoxide dismutase (SOD)-like activity (SOD Test Wako kit); format: biochemical
Protocol: With respect to Substances 1 to 4 and Comparative Substances 1 and 2 which were the same as those used in Test Example 1, SOD-like activity was measured using a blood SOD activity measuring kit (SOD Test Wako: manufactured by Wako Pure Chemical Industries, Ltd.). SOD-like activity was calculated according to the following formula and 50% effective concentration (EC50) was calculated based on the relationship with the concentration of test sample. SOD-like activity(%)=[(1−(absorbance of test sample))/(absorbance of control)]×100
EC50 was calculated from SOD-like activities in gradual concentrations of each sample.

[2] = DPPH radical scavenging effect; format: biochemical; conditions: 60 μM DPPH, room temperature 30 minutes, absorbance 520 nm
Protocol: 100 μl of a DPPH solution (60 μM ethanol solution) was charged in a 96-well microplate and 100 μl of an ethanol solution as a test sample or 100 μl of ethanol as a control was added, and the whole was gently mixed and left to stand at room temperature for 30 minutes. Then, absorbance at 520 nm was measured and a DPPH radical scavenging ability was calculated according to the following formula. 50% effective concentration (EC50) was calculated from the DPPH radical scavenging ability and concentrations of gradually diluted test samples. DPPH radical scavenging ability(%)=[(1−(absorbance of test sample))/(absorbance of control)]×100
50% effective concentration (EC50) was calculated from DPPH radial scavenging abilities in gradual concentrations of each sample.

## catechin [Comparative Substance 2]
[1]
  EC50 in SOD-like activity: 62.0 mg/L
[2]
  EC50 in DPPH radical scavenging: 1.71 mg/L
